The molecules below were run on Chenopodium album (assay: Test Example 3: herbicidal effect test by treatment of dry field farming soil (one day after seeding)). Conditions: 120 g/10a active ingredient, evaluated 14 days after treatment.
Format: in vivo
Description: (§1) This test was conducted in a double system per one agent solution concentration area, and the herbicidal rates (%) were determined by the following equation (Math. 1) on 14 days after the treatment with the agents. Herbicidal Rate (%)={1-(Average Dry Weight (g) of Plant of Treated Area)/(Average Dry Weight (g) of Plant of Untreated Area)}×100 [Math. 1]
(§2) Herbicidal Effect Test by Treatment of Dry Field Farming Soil
(§3) Pots with a size of 36 cm^2 were filled with a dry field farming soil (alluvium). The soil of the top layer of 1 cm and seeds of weeds, namely southern crabgrass, Echinochloa crus-galli, Chenopodium album and Amaranthus viridis, 20 seeds each, were evenly mixed, and the top layer was gently pressed. Emulsions prepared using the compounds in Table 5 below according to Formulation Example 5 were diluted with water one day after seeding, and the water-diluted agent solutions were sprayed to the soil surfaces at a ratio of 100 liters per 10 ares. The converted amount of the applied active ingredient corresponded to 120 g per 10 ares. The herbicidal effects were evaluated by the same standard as that in Test Example 1 on 14 days after the treatment with the agents. […] The compound numbers in Table 5 are the same as those in Table 1 and Table 2 above.

For `Cc1c(Cc2ccccc2NS(=O)(=O)C(F)(F)F)c(=O)on1S(=O)(=O)C(C)C` [Compound 1-251], the “herbicidal rate, Chenopodium album” value was 80%.

What follows are molecules tested on Amaranthus viridis in the same assay as above. Conditions: 120 g/10a active ingredient, evaluated 14 days after treatment.
Format: in vivo
Description: as §1, §2, §3

For `Cc1c(Cc2ccccc2NS(=O)(=O)C(F)(F)F)c(=O)on1S(=O)(=O)C(C)C` [Compound 1-251], the “herbicidal rate, Amaranthus viridis” value was 80%.

The molecules below were run on southern crabgrass in the same assay as above. Conditions: 120 g/10a active ingredient, evaluated 14 days after treatment.
Format: in vivo
Description: as §1, §2, §3

For `Cc1c(Cc2ccccc2NS(=O)(=O)C(F)(F)F)c(=O)on1S(=O)(=O)C(C)C` [Compound 1-251], the “herbicidal rate, southern crabgrass” value was 80%.

The molecules below were run on Echinochloa crus-galli in the same assay as above. Conditions: 120 g/10a active ingredient, evaluated 14 days after treatment.
Format: in vivo
Description: as §1, §2, §3

With `Cc1c(Cc2ccccc2NS(=O)(=O)C(F)(F)F)c(=O)on1S(=O)(=O)C(C)C` [Compound 1-251] the “herbicidal rate, Echinochloa crus-galli” value was 100%.

The molecules below were run on broad leaf weeds (Lindernia pyxidaria and Monochoria vaginalis) (assay: Test Example 1: herbicidal effect test by treatment of rice paddy soil (immediately after seeding)). Conditions: Lindernia pyxidaria, 120 g/10a active ingredient, dry weight vs untreated area, 14 days after treatment.
Format: in vivo
In short: (§4)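 Flooded paddy pot test in a glass greenhouse: emulsion diluted in water, dropped at 120 g a.i. per 10 ares just after sowing, water depth kept about 3 cm. Dry-weight reduction relative to untreated plants is scored at 14 days.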

First: CC(C)Cn1oc(=O)c(Cc2ccccc2NS(=O)(=O)C(F)(F)F)c1C(F)(F)F [Compound 1-81]
Second: Cc1c(Cc2ccccc2NS(=O)(=O)C(F)(F)F)c(=O)on1S(=O)(=O)C(C)C [Compound 1-251]
The “Herbicidal rate (%) Lindernia pyxidaria” value of the first is lower: 80% for the first, 90% for the second.

For `Cc1c(Cc2ccccc2N(S(=O)(=O)C(F)(F)F)S(=O)(=O)C(F)(F)F)c(=O)on1C(C)c1ccccc1` (stereo not drawn) [Compound 1-1030], the “Herbicidal rate (%) Lindernia pyxidaria” value was 100%.

Same assay, conditions: Monochoria vaginalis, 120 g/10a active ingredient, dry weight vs untreated area, 14 days after treatment

Going from `CC(C)Cn1oc(=O)c(Cc2ccccc2NS(=O)(=O)C(F)(F)F)c1C(F)(F)F` [Compound 1-81] to `Cc1c(Cc2ccccc2NS(=O)(=O)C(F)(F)F)c(=O)on1S(=O)(=O)C(C)C` [Compound 1-251], the “Herbicidal rate (%) Monochoria vaginalis” value rises from 80% to 100%.

For `Cc1c(Cc2ccccc2N(S(=O)(=O)C(F)(F)F)S(=O)(=O)C(F)(F)F)c(=O)on1C(C)c1ccccc1` (stereo not drawn) [Compound 1-1030], the “Herbicidal rate (%) Monochoria vaginalis” value was 100%.

Each molecule was assayed on Scirpus juncoides in the same assay as above. Conditions: 120 g/10a active ingredient, dry weight vs untreated area, 14 days after treatment.
Format: in vivo
In short: as §4

Going from `CC(C)Cn1oc(=O)c(Cc2ccccc2NS(=O)(=O)C(F)(F)F)c1C(F)(F)F` [Compound 1-81] to `Cc1c(Cc2ccccc2NS(=O)(=O)C(F)(F)F)c(=O)on1S(=O)(=O)C(C)C` [Compound 1-251], the “Herbicidal rate (%) Scirpus juncoides” value falls from 90% to 80%.

With `Cc1c(Cc2ccccc2N(S(=O)(=O)C(F)(F)F)S(=O)(=O)C(F)(F)F)c(=O)on1C(C)c1ccccc1` (stereo not drawn) [Compound 1-1030] the “Herbicidal rate (%) Scirpus juncoides” value was 90%.

These molecules were tested on Echinochloa crus-galli in the same assay as above. Conditions: 120 g/10a active ingredient, dry weight vs untreated area, 14 days after treatment.
Format: in vivo
In short: as §4

First: CC(C)Cn1oc(=O)c(Cc2ccccc2NS(=O)(=O)C(F)(F)F)c1C(F)(F)F [Compound 1-81]
Second: Cc1c(Cc2ccccc2NS(=O)(=O)C(F)(F)F)c(=O)on1S(=O)(=O)C(C)C [Compound 1-251]
The “Herbicidal rate (%) Echinochloa crus-galli” value of the first is lower: 90% for the first, 100% for the second.

In the case of `Cc1c(Cc2ccccc2N(S(=O)(=O)C(F)(F)F)S(=O)(=O)C(F)(F)F)c(=O)on1C(C)c1ccccc1` (stereo not drawn) [Compound 1-1030], the “Herbicidal rate (%) Echinochloa crus-galli” value is reported as 90%.

These molecules were tested on Chenopodium album (assay: Test Example 4: herbicidal effect test by treatment of leave and stem in dry field farming (seven days after seeding)). Conditions: 120 g/10a active ingredient; emulsion sprayed seven days after seeding; evaluated 14 days after treatment.
Format: in vivo
Description: as §1
(§5) Herbicidal Effect Test by Treatment of Leave and Stem in Dry Field Farming
as §3, with “Table 6” for “Table 5”, “water seven days” for “water one day”

First: CC(C)Cn1oc(=O)c(Cc2ccccc2NS(=O)(=O)C(F)(F)F)c1C(F)(F)F [Compound 1-81]
Second: Cc1c(Cc2ccccc2N(S(=O)(=O)C(F)(F)F)S(=O)(=O)C(F)(F)F)c(=O)on1C(C)c1ccccc1 (stereo not drawn) [Compound 1-1030]
The “herbicidal effect (herbicidal rate), Chenopodium album” value of the first is lower: 0% for the first, 40% for the second.

What follows are molecules tested on Amaranthus viridis in the same assay as above. Conditions: 120 g/10a active ingredient; emulsion sprayed seven days after seeding; evaluated 14 days after treatment.
Format: in vivo
Description: as §1, §5
as §3, with “Table 6” for “Table 5”, “water seven days” for “water one day”

Going from `CC(C)Cn1oc(=O)c(Cc2ccccc2NS(=O)(=O)C(F)(F)F)c1C(F)(F)F` [Compound 1-81] to `Cc1c(Cc2ccccc2N(S(=O)(=O)C(F)(F)F)S(=O)(=O)C(F)(F)F)c(=O)on1C(C)c1ccccc1` (stereo not drawn) [Compound 1-1030], the “herbicidal effect (herbicidal rate), Amaranthus viridis” value rises from 0% to 40%.

These molecules were tested on southern crabgrass in the same assay as above. Conditions: 120 g/10a active ingredient; emulsion sprayed seven days after seeding; evaluated 14 days after treatment.
Format: in vivo
Description: as §1, §5
as §3, with “Table 6” for “Table 5”, “water seven days” for “water one day”

Going from `CC(C)Cn1oc(=O)c(Cc2ccccc2NS(=O)(=O)C(F)(F)F)c1C(F)(F)F` [Compound 1-81] to `Cc1c(Cc2ccccc2N(S(=O)(=O)C(F)(F)F)S(=O)(=O)C(F)(F)F)c(=O)on1C(C)c1ccccc1` (stereo not drawn) [Compound 1-1030], the “herbicidal effect (herbicidal rate), southern crabgrass” value falls from 80% to 40%.

What follows are molecules tested on Echinochloa crus-galli in the same assay as above. Conditions: 120 g/10a active ingredient; emulsion sprayed seven days after seeding; evaluated 14 days after treatment.
Format: in vivo
Description: as §1, §5
as §3, with “Table 6” for “Table 5”, “water seven days” for “water one day”

`CC(C)Cn1oc(=O)c(Cc2ccccc2NS(=O)(=O)C(F)(F)F)c1C(F)(F)F` [Compound 1-81] and `Cc1c(Cc2ccccc2N(S(=O)(=O)C(F)(F)F)S(=O)(=O)C(F)(F)F)c(=O)on1C(C)c1ccccc1` (stereo not drawn) [Compound 1-1030] are the same in “herbicidal effect (herbicidal rate), Echinochloa crus-galli” value: 90% for the first, 90% for the second.

Each molecule was assayed on broad leaf weeds (Lindernia pyxidaria and Monochoria vaginalis) (assay: Test Example 2: herbicidal effect test by treatment during growing period in paddy rice cultivation (seven days after seeding)). Conditions: Lindernia pyxidaria, 120 g/10a active ingredient, assessed 14 days after treatment, dry weight vs untreated area.
Format: in vivo
In short: (§6)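 Seeds sown 0–1 cm deep in puddled, fertilised paddy soil with about 3 cm standing water in a glass greenhouse. Diluted emulsion dropped into the water seven days after seeding at 120 g active ingredient per 10 ares. Herbicidal rate (%) from mean dry weight vs untreated, duplicate, 14 days after treatment.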

Going from `CC(C)Cn1oc(=O)c(Cc2ccccc2NS(=O)(=O)C(F)(F)F)c1C(F)(F)F` [Compound 1-81] to `Cc1c(Cc2ccccc2NS(=O)(=O)C(F)(F)F)c(=O)on1S(=O)(=O)C(C)C` [Compound 1-251], the “Herbicidal rate (%) Lindernia pyxidaria” value falls from 60% to 50%.

In the case of `Cc1c(Cc2ccccc2N(S(=O)(=O)C(F)(F)F)S(=O)(=O)C(F)(F)F)c(=O)on1C(C)c1ccccc1` (stereo not drawn) [Compound 1-1030], the “Herbicidal rate (%) Lindernia pyxidaria” value is reported as 90%.

Same assay, conditions: Monochoria vaginalis, 120 g/10a active ingredient, assessed 14 days after treatment, dry weight vs untreated area

`CC(C)Cn1oc(=O)c(Cc2ccccc2NS(=O)(=O)C(F)(F)F)c1C(F)(F)F` [Compound 1-81] and `Cc1c(Cc2ccccc2NS(=O)(=O)C(F)(F)F)c(=O)on1S(=O)(=O)C(C)C` [Compound 1-251] are the same in “Herbicidal rate (%) Monochoria vaginalis” value: 80% for the first, 80% for the second.

For `Cc1c(Cc2ccccc2N(S(=O)(=O)C(F)(F)F)S(=O)(=O)C(F)(F)F)c(=O)on1C(C)c1ccccc1` (stereo not drawn) [Compound 1-1030], the “Herbicidal rate (%) Monochoria vaginalis” value was 90%.

These molecules were tested on Scirpus juncoides in the same assay as above. Conditions: 120 g/10a active ingredient, assessed 14 days after treatment, dry weight vs untreated area.
Format: in vivo
In short: as §6

`CC(C)Cn1oc(=O)c(Cc2ccccc2NS(=O)(=O)C(F)(F)F)c1C(F)(F)F` [Compound 1-81] and `Cc1c(Cc2ccccc2NS(=O)(=O)C(F)(F)F)c(=O)on1S(=O)(=O)C(C)C` [Compound 1-251] are the same in “Herbicidal rate (%) Scirpus juncoides” value: 90% for the first, 90% for the second.

For `Cc1c(Cc2ccccc2N(S(=O)(=O)C(F)(F)F)S(=O)(=O)C(F)(F)F)c(=O)on1C(C)c1ccccc1` (stereo not drawn) [Compound 1-1030], the “Herbicidal rate (%) Scirpus juncoides” value was 90%.

What follows are molecules tested on Echinochloa crus-galli in the same assay as above. Conditions: 120 g/10a active ingredient, assessed 14 days after treatment, dry weight vs untreated area.
Format: in vivo
In short: as §6

Going from `CC(C)Cn1oc(=O)c(Cc2ccccc2NS(=O)(=O)C(F)(F)F)c1C(F)(F)F` [Compound 1-81] to `Cc1c(Cc2ccccc2NS(=O)(=O)C(F)(F)F)c(=O)on1S(=O)(=O)C(C)C` [Compound 1-251], the “Herbicidal rate (%) Echinochloa crus-galli” value falls from 80% to 50%.

In the case of `Cc1c(Cc2ccccc2N(S(=O)(=O)C(F)(F)F)S(=O)(=O)C(F)(F)F)c(=O)on1C(C)c1ccccc1` (stereo not drawn) [Compound 1-1030], the “Herbicidal rate (%) Echinochloa crus-galli” value is reported as 90%.
